Laboratory results published in paper PMC6930622, “Validation of an HPLC Method for the Simultaneous Quantification of Metabolic Reaction Products Catalysed by CYP2C11 Enzymes in Rat Liver Microsomes: In Vitro Inhibitory Effect of Salicylic Acid on CYP2C11 Enzyme” (Molecules, 2019).

Molecular target: T1, CYP2C11 (Rattus norvegicus, UniProt P08683)
T1 sequence (P08683 1-500): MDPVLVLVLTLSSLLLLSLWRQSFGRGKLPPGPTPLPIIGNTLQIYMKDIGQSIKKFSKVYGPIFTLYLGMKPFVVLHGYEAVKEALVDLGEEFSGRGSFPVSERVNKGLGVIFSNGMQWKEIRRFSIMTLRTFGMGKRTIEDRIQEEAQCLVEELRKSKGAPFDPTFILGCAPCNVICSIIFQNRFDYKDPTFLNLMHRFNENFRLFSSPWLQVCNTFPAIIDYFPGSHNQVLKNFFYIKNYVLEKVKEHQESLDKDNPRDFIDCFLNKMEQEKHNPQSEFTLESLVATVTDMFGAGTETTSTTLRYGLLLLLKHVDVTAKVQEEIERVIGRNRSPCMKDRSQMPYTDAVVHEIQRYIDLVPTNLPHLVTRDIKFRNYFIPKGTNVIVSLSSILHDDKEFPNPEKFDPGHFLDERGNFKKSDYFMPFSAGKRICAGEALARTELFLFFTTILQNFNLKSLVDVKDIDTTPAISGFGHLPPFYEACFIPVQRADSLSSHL
Test: testosterone […]α-hydroxylation in pooled male Sprague-Dawley rat liver microsomes, HPLC; Lineweaver-Burk
Type: biochemical

`O=C(O)c1ccccc1O` [salicylic acid] showed a Ki of 84.6 ± 2.67 µM.
